Tests used:
[1] = target: T1, hα7-wt nAChR-expressing GH4C1 cells (Homo sapiens, UniProt P36544); test: Patch-clamp current recording (whole-cell voltage clamp), potentiation of the choline current and PAM type; type: cell-based; set-up: key: Type 0 compounds minimally enhance the effect size of the current elicited by 1 mM choline.; Type 1 compounds enhance the effect size of the current elicited by 1 mM choline but minimally alter the kinetics of the receptor.; Type 2 compounds enhance the effect size of the current elicited by 1 mM choline while reducing the rate and/or the extent of desensitization.; Type 3 compounds enhance the effect size of the current elicited by 1 mM choline. When tested at higher concentrations up to 10 μM they completely inhibit desensitization, in particular a 1 mM choline application of 250 milliseconds.; Type 4 compounds allow for an initial desensitization of the receptor followed by a re-opening of the receptor during agonist application; conditions: 1 mM choline
T1 construct: expressed in transfected cells
T1 sequence (P36544 23-502): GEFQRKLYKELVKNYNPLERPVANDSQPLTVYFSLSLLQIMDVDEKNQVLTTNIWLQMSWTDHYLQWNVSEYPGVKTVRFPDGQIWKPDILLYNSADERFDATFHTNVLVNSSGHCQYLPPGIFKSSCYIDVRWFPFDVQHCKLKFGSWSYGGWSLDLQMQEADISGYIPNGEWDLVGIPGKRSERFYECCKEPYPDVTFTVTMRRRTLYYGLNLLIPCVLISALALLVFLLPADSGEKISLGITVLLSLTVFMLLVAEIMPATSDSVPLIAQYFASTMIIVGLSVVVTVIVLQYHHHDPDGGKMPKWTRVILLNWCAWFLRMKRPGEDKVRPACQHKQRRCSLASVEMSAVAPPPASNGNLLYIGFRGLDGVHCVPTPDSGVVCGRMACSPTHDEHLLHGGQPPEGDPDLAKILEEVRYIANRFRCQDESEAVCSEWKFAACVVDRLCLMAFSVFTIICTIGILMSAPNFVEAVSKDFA
How it was run: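 Whole-cell voltage clamp at −70 mV of GH4C1 cells stably expressing human wild-type α7, with compound co-applied with 1 mM choline via rapid (<100 ms) application; external solution pH 7.3 with 1 mM Ca, CsCl-based internal. Peak-current potentiation relative to choline alone (=100%); compounds reaching ≥200% assigned PAM type 0-4 from desensitization kinetics.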

hα7-wt nAChR = target: T2, hα7-wt nAChR (Homo sapiens, UniProt P36544); test: Ca2+ flux imaging (FDSS) (Protocol B), potentiation of the choline response; type: cell-based; conditions: Ca2+ assay as described in D.1; "<5" = activity did not reach a top plateau at maximal concentration
T2 construct: expressed in transfected cells
T2 sequence (P36544 23-502): as above
How it was run: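 Cells expressing hα7-wt nAChR, loaded with fluo-4AM (2 μM final) in HBSS with 10 mM HEPES, 5 mM CaCl2, 0.1% BSA and probenecid; compound (0.01–30 μM) added up to 10 min before 100 μM choline. Peak fluorescence potentiation relative to choline alone (100%); EC50 from sigmoidal curve.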

Compound | melting point [°C] | EC50 (hα7-wt nAChR) [nM] | PAM type [1]
CNC(=O)Cn1nc(Nc2ccc3c(c2)OC(F)(F)O3)cc1-c1ccc2c(c1)OCCO2 [compound 97] | 171.5 to 171.8 | 1120 | 
CC[C@H](O)Cn1nc(Nc2cc(OC)cc(C(F)(F)F)c2)cc1-c1ccnc(C)c1 [compound 183] |  | 794 | 0
CC[C@H](O)Cn1nc(Nc2cccc(Cl)c2)cc1-c1ccnc(C)c1 [compound 185, (alphaS)-3-[(3-chlorophenyl)amino]-alpha-ethyl-5-[2-methyl-4-pyridinyl]-1H-pyrazole-1-ethanol] |  | 1580 | 1

Now those with a lower EC50 (hα7-wt nAChR), led by results:

melting point [°C] | EC50 (hα7-wt nAChR) [nM] | Compound | PAM type [1]
189.5 to 194.5 | 195 | CNC(=O)Cn1nc(Nc2ccc(F)c(F)c2)cc1-c1ccc2c(c1)OCCO2 [compound 7, 3-[(3,4-difluorophenyl)amino]-5-(2,3-dihydro-1,4-benzodioxin-6-yl)-N-methyl-1H-pyrazole-1-acetamide] | 2
189.5 to 194 | 646 | CNC(=O)Cn1nc(Nc2cccc(F)c2)cc1-c1ccc2c(c1)OCCO2 [compound 72] | 2
169.9 to 177.3 | 437 | CNC(=O)Cn1nc(Nc2ccc(F)cc2)cc1-c1ccc2c(c1)OCCO2 [compound 73] | 3
141.6 to 143.2 | 117 | CN(C)C(=O)CCn1nc(Nc2ccc(F)cc2)cc1-c1ccc2c(c1)OCCO2 [compound 83] | 
